# Source: PMC7876453, “Targeting Indoleamine 2,3-Dioxygenase in Cancer Models Using the Novel Small Molecule Inhibitor NTRC 3883-0” (Frontiers in Immunology, 2021)
# Read-outs that look alike come from different tables or passages of the source.
# Tests used:
# [1] = tested on: IFNγ-stimulated adherent cell samples isolated from ascites of ovarian cancer patients; assay: Trp-catabolizing activity in IFNγ-stimulated ascites cell samples; type: cell-based; details: Homo sapiens
# Experimental: Ascites was collected from patients with a primary diagnosis of advanced epithelial ovarian cancer during paracentesis for diagnostics or symptom relieve, or during primary debulking surgery. Ascites was filtered and cells were collected by centrifugation as described ([23]). To enrich for tumor cells, ascites cell samples were allowed to adhere overnight to tissue culture plastic. The cell samples were then cultured for 2–3 weeks in advanced RPMI medium (ThermoFisher), supplemented with 10% FBS, 1% glutamax and 1% P/S, with 2 or 3 times passaging of the cells. qPCR analyses of the MUC16, HE4, IDO1, and TDO2 genes were performed for all samples as described above. Five samples which could be cultured over multiple passages were analyzed for cell surface expression of mucin-16 and EpCAM by flow cytometry using FITC-conjugated anti-mucin-16 (AssayPro, #32189-05141) and APC-conjugated anti-EpCAM (Miltenyi, #130-111-117, RRID: AB_2657496) to assure that the cell cultures consisted of malignant cells. IDO1 mRNA and protein levels in these samples were analyzed as described above after incubation with or without 200 ng/ml IFNγ for 24 h. The collection of ascites and the research described was conducted with approval of the medical ethical committee of the Radboud university medical center and informed written consent from each subject.
# GL-261-mTDO = GL-261-mTDO (Mus musculus, UniProt P48776); assay: cell-based assay, Trp-catabolizing activity in GL-261-mTDO cells; details: read-out: inhibition GL-261-mTDO
# [2] = tested on: cell lines used in this study; assay: cell viability assays (ATPlite 1Step); details: in parallel with the cell-based assays
# hWB + IFNγ (hIDO1) = target: T1, hWB + IFNγ (hIDO1) (Homo sapiens, UniProt P14902); assay: human whole blood assay, Trp-catabolizing activity after IFNγ stimulation; type: cell-based; details: human whole blood from healthy donors
# T1 construct: from tissue; host or cells: heparinized human whole blood from healthy donors, IFNγ-stimulated
# [3] = plasma protein binding, mouse; type: in vitro ADME
# Experimental: Supplement DataSheet_1.docx, table 2: Table S2. Pharmacokinetic parameters of NTRC 3883-0 observed in mouse, rat, monkey and dog, and predicted for humans using allometric scaling. Data in bold are measured, while data in italics are calculated or predicted (for humans). The clearance (Cl) and volume of distribution at steady state (Vss | column: Mouse
# A375 + IFNγ (hIDO1) = target: T2, A375 + IFNγ (hIDO1) (Homo sapiens, UniProt P14902); assay: cell-based assay, Trp-catabolizing activity in IFNγ-stimulated A375 cells; details: IFNγ-stimulated A375 human melanoma cells
# T2 construct: host or cells: A375 cells stimulated with IFNγ
# T2 sequence (P14902 whole entry): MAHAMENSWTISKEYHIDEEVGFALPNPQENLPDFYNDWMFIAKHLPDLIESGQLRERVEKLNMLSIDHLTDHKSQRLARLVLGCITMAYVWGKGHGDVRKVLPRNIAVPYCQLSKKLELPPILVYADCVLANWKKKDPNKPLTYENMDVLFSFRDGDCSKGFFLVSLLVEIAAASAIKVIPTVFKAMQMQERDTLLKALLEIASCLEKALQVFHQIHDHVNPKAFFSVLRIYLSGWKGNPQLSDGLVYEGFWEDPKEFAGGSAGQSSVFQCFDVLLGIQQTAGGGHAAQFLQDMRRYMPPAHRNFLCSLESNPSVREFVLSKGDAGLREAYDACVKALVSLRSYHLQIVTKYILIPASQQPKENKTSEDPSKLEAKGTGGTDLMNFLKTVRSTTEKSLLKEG
# T1 sequence (P14902 whole entry): as above
# GL-261-mTDO, sequence (P48776 whole entry): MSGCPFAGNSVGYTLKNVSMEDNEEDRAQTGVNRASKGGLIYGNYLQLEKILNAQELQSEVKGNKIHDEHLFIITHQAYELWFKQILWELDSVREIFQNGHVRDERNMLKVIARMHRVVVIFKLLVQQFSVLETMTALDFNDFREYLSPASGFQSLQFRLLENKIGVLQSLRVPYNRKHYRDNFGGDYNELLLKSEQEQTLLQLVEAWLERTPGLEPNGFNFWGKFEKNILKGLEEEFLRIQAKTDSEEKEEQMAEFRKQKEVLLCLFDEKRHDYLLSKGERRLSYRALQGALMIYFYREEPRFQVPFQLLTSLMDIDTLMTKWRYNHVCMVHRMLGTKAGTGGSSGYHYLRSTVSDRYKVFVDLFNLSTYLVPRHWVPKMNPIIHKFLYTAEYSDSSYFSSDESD
smiles,measurement,setting,value
O=C1CN(C(=O)c2c(F)cccc2F)[C@H](c2cccc(Br)c2)N1O [NTRC 3883-0],IC50,"[1]; IFNγ-stimulated samples, read-out: IC50",261 nM
same,IC50,"[1]; IFNγ-stimulated, read-out: IC50 ASC 009",236 nM
same,IC50,"[1]; IFNγ-stimulated, read-out: IC50 ASC 010",294 nM
same,IC50,"[1]; IFNγ-stimulated, read-out: IC50 ASC 013",237 nM
same,IC50,"[1]; IFNγ-stimulated, read-out: IC50 ASC 031",271 nM
same,IC50,"[1]; IFNγ-stimulated, read-out: IC50 ASC 041",321 nM
same,inhibition at 31.6 µM,GL-261-mTDO,< 20%
same,cytotoxicity,[2],not cytotoxic
same,IC50,hWB + IFNγ (hIDO1),378 nM
same,fraction unbound,[3],0.46
same,IC50,A375 + IFNγ (hIDO1),182 nM
